Source: patent publication US20160319277A1, “METHODS OF IMPROVED PROTEIN PRODUCTION USING MIRNAs AND SIRNAs” (THE JOHNS HOPKINS UNIVERSITY, priority 2015, published 2016)
Where two headings read alike, the source gives them in different places.

Test system: HEK-CMV-Luc2-Hygro cells
Assay: High-throughput genome-wide siRNA screen and validation screen for luciferase expression
Format: cell-based, human
Conditions: for per_cell / VIA: Table 3; for per_cell: per cell luciferase yield relative to negative control; for VIA: viable cell density as % of negative control
Method: The Silencer Select™ Human genome siRNA library (Ambion), which targets 21,585 human genes with 3 siRNAs per gene, was used for screening. Each siRNA is arrayed in an individual well (Corning 3570, 384 well, white, solid bottom plates). The transfection was done in duplicates: 0.8 pmol of each siRNA was spotted to a well of a 384-well plate (Corning) and 20 μL of serum-free DMEM containing 0.07 μL of Lipofectamine™ RNAiMax (Life Technologies) was then added to each well. This lipid-siRNA mixture was incubated at ambient temperature for 30 min prior to addition of 4000 cells in 20 μL of DMEM containing 20% FBS (Gibco). After incubating the transfected cells at 37° C. in 5% CO2 for 72 hours, 20 μL of ONE-Glo™ Reagent (Promega) was added to one set of replicates for ‘overall luciferase yield’ quantification and 20 μL of CellTiter-Glo™ Reagent (Promega) was added to the second set of replicates for ‘viable cell density’ measurement. All plates were incubated at room temperature for 20 minutes to stabilize the luminescent signal and the signal was then measured with PerkinElmer Envision 2104 Multilabel™ plate reader.
The 56 genes which got targeted by at least two independent siRNAs (out of three) resulting in enhanced luciferase production with MAD-based z-score>3 from the primary screen were subjected to validation screen using 3 additional Silencer™ siRNAs (Ambion) with different sequences from those used in the primary screen. […] The transfection and assay processes were-the same as the primary genome-wide screen. Data visualization was performed in R computational environment (available on the World Wide Web at R-project.org/) by using ‘hexbin’ and ‘ggplot2’ packages.
The screen generated end-point data for ‘overall luciferase yield’ and ‘viable cell density’ in each well. For each plate, the median value of the negative control wells was set as 100% and was used to normalize corresponding sample wells. The ‘overall luciferase yield’ and ‘viable cell density’ were exported as % of negative control and the median absolute deviation (MAD)-based z-score was calculated for each sample.

[1] = Table 4, primary screen, 72 h, negative control = 100%
[2] = Table 6, polyamine pathway gene siRNAs

Row | Substance | Viable cell density (%) [1] | per cell luciferase yield (%) [1] | also measured
1 | 198 (GCCUAGGAGUUAUCCUCUATT; chemistry not given here; listed as Homo sapiens) [compound 198] | 112.248% | 137.554% | 
2 | 208 (CUUUUAAUGUUAAACUACATT; chemistry not given here; listed as Homo sapiens) [compound 208] | 110.986% | 133.601% | 
3 | 204 (CUCCCGCAGUUGAACAUCATT; chemistry not given here; listed as Homo sapiens) [compound 204] | 109.377% | 136.174% | 
4 | 150 (CGCUUUAACUGGAAGCUCUTT; chemistry not given here; listed as Homo sapiens) [compound 150] | 103.662% | 146.993% | 
5 | 187 (AGAAAGCUUUGGGCAAAUATT; chemistry not given here; listed as Homo sapiens) [compound 187] | 75.570% | 200.070% | 
6 | 152 (CGAUGUUCGUGGACAUUCUTT; chemistry not given here; listed as Homo sapiens) [compound 152] | 80.013% | 234.608% | 
7 | 122 (AGGGCUAUCUGGUAUCUGUTT; chemistry not given here; listed as Homo sapiens) [compound 122] |  | 283.281% | Viable cell density (%): 54.854%
8 | 42 (CAAGUCACCUGUUACCUCATT; chemistry not given here; listed as Homo sapiens) [compound 42] |  |  | per_cell (primary screen, 72 h): 171.8; VIA (primary screen, 72 h): 88.96
9 | 173 (GACUAUUGAUACCAAAACATT; chemistry not given here; listed as Homo sapiens) [compound 173] | 82.689% | 209.398% | 
10 | 73 (GUCCGAGUGUGGUUCUGUATT; chemistry not given here; listed as Homo sapiens) [compound 73] |  |  | per_cell (primary screen, 72 h): 180.4; VIA (primary screen, 72 h): 85.82
11 | 109 (GCAUCGAGGAGACUAACAATT; chemistry not given here; listed as Homo sapiens) [compound 109] | 51.696% | 275.068% | 
12 | 164 (GCAGGCACAUGGUUCCUCUTT; chemistry not given here; listed as Homo sapiens) [compound 164] | 83.512% | 259.478% | 
13 | 92 (CCAGUUCGACCUGAACAAATT; chemistry not given here; listed as Homo sapiens) [compound 92] |  |  | per_cell (primary screen, 72 h): 176; VIA (primary screen, 72 h): 85.75
14 | 105 (GCGCAAGCUUAAGAACUUUTT; chemistry not given here; listed as Homo sapiens) [compound 105] | 94.579% | 170.349% | 
15 | 115 (AGAUACUGGUAUUGCUCGATT; chemistry not given here; listed as Homo sapiens) [compound 115] | 54.559% | 388.072% | 
16 | 111 (CAACCUUAUUAUCAUUGAATT; chemistry not given here; listed as Homo sapiens) [compound 111] | 49.133% | 300.611% | 
17 | 165 (AGGUCAAUGUGACUUUCCATT; chemistry not given here; listed as Homo sapiens) [compound 165] | 105.029% | 161.785% | 
18 | 133 (GAACUUCAAUGGAAAACAUTT; chemistry not given here; listed as Homo sapiens) [compound 133] | 63.577% | 250.367% | 
19 | 125 (GGAACACUAUGAUGAGUUUTT; chemistry not given here; listed as Homo sapiens) [compound 125] | 63.672% | 240.287% | 
20 | 128 (CAGCAAACCUUUGACCAGATT; chemistry not given here; listed as Homo sapiens) [compound 128] | 55.405% | 277.511% | 
21 | 149 (CGACCAUCAUGGAAAACAUTT; chemistry not given here; listed as Homo sapiens) [compound 149] | 57.472% | 294.800% | 
22 | 72 (GCUCCUCUGUUACCACAGATT; chemistry not given here; listed as Homo sapiens) [compound 72] |  |  | per_cell (primary screen, 72 h): 179.3; VIA (primary screen, 72 h): 91.53
23 | 43 (GCUAAGUCUUUUCCACAGUTT; chemistry not given here; listed as Homo sapiens) [compound 43] |  |  | per_cell (primary screen, 72 h): 155.4; VIA (primary screen, 72 h): 94.54
24 | 223 (GAUGACUUUUGAUAGUGAATT; chemistry not given here; listed as Homo sapiens) [compound 223] |  |  | Luciferase activity (%) [2]: 18.0%; Per cell luciferase yield (%) [2]: 32.1%; Viable cell number (%) [2]: 56.1%
25 | 163 (CCAGCGAUACAACUCCUAUTT; chemistry not given here; listed as Homo sapiens) [compound 163] | 83.636% | 176.821% | 
26 | 181 (GCUAAGUCUUUUCCACAGUTT; chemistry not given here; listed as Homo sapiens) [compound 181] | 94.537% | 155.385% | 
27 | 90 (GGUGCUCUCGGUUGCACAATT; chemistry not given here; listed as Homo sapiens) [compound 90] |  |  | per_cell (primary screen, 72 h): 187.4; VIA (primary screen, 72 h): 82.33
28 | 141 (AGAGGACCCAGAUUGUCUATT; chemistry not given here; listed as Homo sapiens) [compound 141] | 97.298% | 183.386% | 
29 | 75 (GCUCAUCGACAUCAAAGUUTT; chemistry not given here; listed as Homo sapiens) [compound 75] |  |  | per_cell (primary screen, 72 h): 170.1; VIA (primary screen, 72 h): 97.01
30 | 178 (AAAUGCAACCCAAAAAGUATT; chemistry not given here; listed as Homo sapiens) [compound 178] | 76.280% | 200.322% | 
